Test results published in patent US9364474B2, “Method for treatment of neurologic dysfunction” (MedDEV, Inc., priority 2004, dated 2016).
“Also recorded” adds a separate entry of the source. Where two headings read alike, the source gives them in different places.

Tests used:
[1] = in the human body; cited from earlier work
patient with Autism = experiment: Case examples: patients with Autism (ASD), transdermal reserpine (with prior medication history); format: in vivo, human; details: for outcome of prior reserpine treatment: reserpine 0.01 mg/day
Procedure: The treatment composition is suitably applied in a single daily dose, e.g., 0.01 mg of the MAO-A agonist in 0.05 ml of spray solution applied once every morning.
Prior to administration of the present invention (transdermal reserpine), the patient's parents were provided with an informed consent documenting the potential risks, benefits and alternatives to this treatment. The patient was started on a dose of Reserpine at a 4× dilution resulting in a total dose of 0.01 mg. […] They were also given approximately 1400 mg of Calcium every morning.

[2] = tested on: patient diagnosed with chronic schizophrenia; experiment: Case example: patient with chronic schizophrenia, transdermal reserpine spray (with prior medication history); format: in vivo, human
aldehyde dehydrogenase = details: literature; cited from earlier work
schizophrenic patients = details: Shepherd and Watt 1956; 0.75 mg per day; cited from earlier work
[3] = tested on: resting and evoked activity of the brain of patient with Autism; experiment: Quantitative Electroencephalogram (qEEG, Neuroguide 2.5) in ASD patient; format: in vivo, human; details: ASD Example One
Procedure: In a paper by Thatcher et al, an Autistic signature was reported. […] Analysis was conducted using Neuroguide 2.5, a widely accepted and statistically valid instrument (Thatcher et al, 2003).

MAO-A = details: Youdim & Sandler (1968); cited from earlier work
Autistic children = details: cited from earlier work
[4] = tested on: patient suffering from depression
Procedure: The treatment composition is suitably applied in a single daily dose, e.g., 0.01 mg of the MAO-A agonist in 0.05 ml of transdermal cream applied once every morning. Caffeine may also be included in the composition to compensate for the anti-hypertensive effect of the preferred reserpine; the caffeine may suitably be included in an amount from about 50-100 mg/dose.
Treatment was in the form of 0.01 mg of reserpine per 0.05 ml of transdermal cream, applied transdermally once a day in the morning.
The treatment consisted of 0.01 mg of reserpine per 0.05 ml of cream, applied transdermally by rubbing the cream into the skin once a day in the morning.
The treatment consisted of 0.01 mg of the reserpine per 0.05 ml of cream, applied transdermally by rubbing the cream into the skin once a day in the morning.
The patient discontinued the use of nortriptyline and the same day started the treatment of the present invention, using 0.01 mg of the reserpine per 0.05 ml cream, applied transdermally by rubbing the cream into the skin once a day in the morning.
The patient then started the treatment of the present invention, using 0.01 mg of the MAO-A activity stimulator (reserpine) per 0.05 ml cream, applied transdermally by rubbing the cream into the skin once a day in the morning.

[5] = ASD Example Three, 0.01 mg per day
[6] = ASD Example Three, continued 0.01 mg per day
[7] = ASD Example Two, 0.01 mg per day
[8] = Schizophrenia Example One, first day
[9] = Schizophrenia Example One, fourth day
[10] = Schizophrenia Example One, next 2 days

- effect of starting dose (patient with Autism; ASD Example One: person, transdermal, total dose of 0.01 mg): some increased hyperactivity
- motor hyperactivity (patient with Autism; ASD Example One, 0.005 mg): mild increase in motor hyperactivity
- effect of increased dose (patient with Autism; ASD Example Two, 0.015 mg per day, off gluten free diet): very hyperactive and aggressive
- time to onset of feeling severely depressed after rubbing the spray into skin ([2]; Schizophrenia Example One, first application): ≤ 30 s
- behavior when required calcium was not taken ([2]; Schizophrenia Example One, sixth day, 2,000 mg calcium omitted): became very aggressive
- effect on blood calcium without additional calcium ([2]; without taking additional calcium daily): can cause hypocalcemia
- course of headache after dose reduction ([4]; human, in vivo): resolved immediately
SMILES: COC(=O)[C@H]1[C@H]2C[C@@H]3c4[nH]c5cc(OC)ccc5c4CCN3C[C@H]2C[C@@H](OC(=O)c2cc(OC)c(OC)c(OC)c2)[C@@H]1OC [reserpine]
- therapeutic half-life [1]: 33 h
- temper outbursts during the course of treatment (patient with Autism; ASD Example One, 0.005 mg, no quetiapine administration needed): no temper outbursts
- anxiety (patient with Autism; ASD Example One, after three weeks of treatment): markedly decreased amount of anxiety
- social interactions, language and attention (patient with Autism; ASD Example One, after three weeks, reduced dose 0.005 mg transdermal): significant improvements in their social interactions, language, and attention; also recorded: started using several meaningful sentences in succession
- “stimming” (banging of the plastic sticks) (patient with Autism; ASD Example Three: person, transdermal reserpine 0.01 mg per day, immediately): reduced to only infrequent occurrence
- speech after 2 months (patient with Autism; ASD Example Three, 0.01 mg): shouted out very clearly the words, “I'm hungry”
- behavior by the second day of administration (patient with Autism; [5]): left their clothes on without supervision
- social response and language comprehension (parents' report) (patient with Autism; [5]): will now look at them and smile when spoken to and appears to understand language better
- speech within the first 30 days (patient with Autism; [5]): started making some new speech sounds
- continued course (patient with Autism; [6]): subtle slow improvements in social behavior, speech, attention span, and awareness and interaction with their environment
- side effects (patient with Autism; [6]): without any side effects
- attention span (patient with Autism; ASD Example Two: person, transdermal reserpine 0.01 mg per day, immediately): increase attention span
- affectionate behavior (patient with Autism; [7]): become more affectionate toward their parents and grandparents
- speech (patient with Autism; [7]): all of their speech is clear and comprehensible
- time they could stay focused on a task (patient with Autism; [7]): ≥ 30 min
- outcome after dose decreased back (patient with Autism; ASD Example Two, back to 0.01 mg per day, off gluten free diet): maintained their improvements in speech, social behavior, and attention span
- outcome of prior reserpine treatment (patient with Autism; Homeopathic Example One: person): Substantial improvements
- outcome of prior reserpine treatment (patient with Autism; Homeopathic Example Two: person): substantial improvement
- urinary calcium excretion (patient with Autism; as a result of reserpine administration): increase in the amount of calcium excreted in the urine
- side effects after first application ([2]; Schizophrenia Example One: person, transdermal reserpine via metered sprayer on forearm, Abilify stopped the day before): feeling severely depressed; also recorded: rapid heart rate, and anxiety
- effect on symptoms of schizophrenia (report) [2, 8]: more focused, they had clearer thoughts
- time to resolution of side effect symptoms after applying the spray [2, 8]: 2 to 3 h
- side effects [2, 9]: none of these side effect symptoms occurred
- task completion [2, 9]: completed a list of chores that they gave them without supervision
- severity of returning side effects [2, 10]: slightly less severe
- time to resolution of side effect symptoms after applying the dose [2, 10]: ≤ 2 h
- effect on aldehyde dehydrogenase (aldehyde dehydrogenase): inhibit aldehyde dehydrogenase
- effect of low dose in schizophrenia (schizophrenic patients): resembling more an inert substance than the drug
- change in quantitative Electroencephalogram ([3]; after three weeks of treatment (FIG. 5)): significant change in their quantitative Electroencephalogram
- High Beta activity in qEEG ([3]; increased after starting HBOT, after starting transdermal reserpine): appears to subside
- effect on MAO-A (MAO-A): activate MAO-A
- average optimum dose (Autistic children; Lehman et al 1957, oral): 5 mg per day
- optimum dose (Autistic children; Lehman et al 1957, oral, improvements only within this range, per day): 3 to 7 mg
- effectiveness in autism (Autistic children; Macready 2001, doses of 0.25-1.8 mg/day): may be effective in autism
- effect on symptoms of depression ([4]; Depression Example Five, 0.002 mg, other symptoms persisted): alleviation of their symptoms of feeling hopelessness and “doom and gloom”
- effect on symptoms of depression ([4]; Depression Example Five, 0.004 mg, third day, fatigue and insomnia still experienced): improvement in their emotions
- effect on symptoms of depression ([4]; Depression Example Five, 0.006 mg per day): all of the patient's symptoms of depression were successfully alleviated
- return of symptoms on long-term treatment ([4]; Depression Example Five, eight consecutive months, 0.006 mg per day transdermally): no return of the symptoms of depression
- time to resolution of fatigue and loss of energy after first dose ([4]; Depression Example Four: person, 0.01 mg of reserpine per 0.05 ml cream transdermally once a day, nortriptyline discontinued): one
- outcome after dose increase during stressful event ([4]; Depression Example Four, 0.02 mg for one week): insomnia and fatigue resolved
- return of symptoms on long-term treatment ([4]; Depression Example Four, 10 months of consecutive daily treatment, 0.01 mg): no return of the symptoms listed above
- outcome after return to the lower dose ([4]; Depression Example Four, returned to 0.01 mg dose): no return of any symptoms of depression
- time to significant improvement in state of mind after first application ([4]; Depression Example One: 250-pound person, 0.01 mg of reserpine per 0.05 ml of transdermal cream once a day): four
- weight lost during the treatment ([4]; Depression Example One, 0.01 mg transdermal once a day): > 20 pounds
- status of prior symptoms of depression on continued treatment ([4]; Depression Example One, 0.01 mg transdermal, consecutive 24-hour dosing regimen): remains free of all of the prior symptoms
- time from last dose to beginning return of symptoms ([4]; Depression Example One, dose forgotten for a day): about 32 hours
- time to freedom from all symptoms after applying the missed dose ([4]; Depression Example One, dose missed for 72 hours): one
- marijuana use during the treatment ([4]; Depression Example Three): has not used any marijuana during the treatment
- time to resolution of pessimism and negative mood aspects after first dose ([4]; Depression Example Three: 220-pound person, depression and substance abuse, 0.01 mg of reserpine per 0.05 ml of cream transdermally once a day): two
- cravings for substances of abuse ([4]; Depression Example Three, after first dose 0.01 mg): no cravings for marijuana or alcohol
- outcome after dose decrease ([4]; Depression Example Three, dose decreased to 0.0075 mg of reserpine): symptoms resolved that same day
- weight lost ([4]; Depression Example Three, first 60 days): five
- weight loss after resuming the treatment ([4]; Depression Example Two): 1-2 pound per week
- time to increased energy after applying the dose ([4]; Depression Example Two: 175-pound person, 0.01 mg of reserpine per 0.05 ml of cream transdermally once a day): one
- time to resolution of all perceptible symptoms after first application (except slight problems with memory) ([4]; Depression Example Two, 0.01 mg transdermal): ≤ 10 h
- return of symptoms during treatment ([4]; Depression Example Two, 30 consecutive days): no return of their symptoms
- time to resolution of symptoms after resuming the treatment ([4]; Depression Example Two, after 10 day interruption): one
- total weight lost ([4]; Depression Example Two, first 50 days): 15 pounds
- symptoms during interruption of treatment ([4]; Depression Example Two, treatment interrupted for 10 days): all of the symptoms returned
- time to improvement or resolution of symptoms after first application ([4]; each of the depression examples): 1 to 4 h
- effect of too high a dose ([4]; human, in vivo): undesirable increase in the symptoms of depression
- negative side effects ([4]; human, in vivo): no significant negative side effects
- side effect at starting dose ([4]; human, in vivo): headache that did not resolve spontaneously the first day
